Data taken from article PMC8110907, “Arabidopsis Carboxylesterase 20 Binds Strigolactone and Increases Branches and Tillers When Ectopically Expressed in Arabidopsis and Maize” (Frontiers in Plant Science, 2021).

Legend:
[1] = molecular target: T1, AtCXE20 (carboxylesterase 20) (Arabidopsis thaliana, UniProt Q9LVB8); experiment: esterase inhibition at […] (p-nitrophenyl acetate substrate); also decreased intrinsic fluorescence at […]; assay type: biochemical
T1 construct: gene CXE20; recombinant AtCXE20 with 20-amino acid N-terminal peptide fusion including a 6-histidine tag, expressed in E. coli
T1 sequence (Q9LVB8 1-327): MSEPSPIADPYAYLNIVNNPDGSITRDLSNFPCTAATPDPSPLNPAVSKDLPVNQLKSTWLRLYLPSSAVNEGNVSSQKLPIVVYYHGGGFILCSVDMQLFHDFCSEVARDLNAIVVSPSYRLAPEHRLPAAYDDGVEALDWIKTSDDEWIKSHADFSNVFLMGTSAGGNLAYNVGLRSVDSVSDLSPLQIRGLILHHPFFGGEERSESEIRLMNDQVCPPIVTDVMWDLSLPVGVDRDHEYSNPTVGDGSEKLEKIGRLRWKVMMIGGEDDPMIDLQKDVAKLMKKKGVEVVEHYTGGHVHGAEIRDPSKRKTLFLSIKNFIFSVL

[2] = molecular target: T1, AtCXE20 (carboxylesterase 20); experiment: esterase assay with p-nitrophenyl acetate, Michaelis-Menten kinetics; assay type: biochemical
[3] = substrate: CC(=O)Oc1ccc([N+](=O)[O-])cc1; experiment: purified protein; assay type: biochemical, Arabidopsis thaliana; conditions: catalytic triad S166, H302, D272 (homology model)

Molecule: CC1=CC(O/C=C2/C(=O)OC3c4ccccc4CC23)OC1=O (racemic) [GR24, rac-GR24]
- esterase inhibition at 20 μM (p-nitrophenyl acetate substrate); also decreased i [1]: substantial inhibition was observed with the synthetic SL racemic mixture GR24

Molecule: CC1=C[C@H](O/C=C2/C(=O)O[C@@H]3C4=C(CCCC4(C)C)C[C@H]23)OC1=O [5-DS, 5-deoxystrigol]
- Ki [2]: 5 µM

B1: AtCXE20 (carboxylesterase 20) (Arabidopsis thaliana) (protein)
chain: MSEPSPIADPYAYLNIVNNPDGSITRDLSNFPCTAATPDPSPLNPAVSKDLPVNQLKSTWLRLYLPSSAVNEGNVSSQKLPIVVYYHGGGFILCSVDMQLFHDFCSEVARDLNAIVVSPSYRLAPEHRLPAAYDDGVEALDWIKTSDDEWIKSHADFSNVFLMGTSAGGNLAYNVGLRSVDSVSDLSPLQIRGLILHHPFFGGEERSESEIRLMNDQVCPPIVTDVMWDLSLPVGVDRDHEYSNPTVGDGSEKLEKIGRLRWKVMMIGGEDDPMIDLQKDVAKLMKKKGVEVVEHYTGGHVHGAEIRDPSKRKTLFLSIKNFIFSVL
notes: recombinant AtCXE20 with 20-amino acid N-terminal peptide fusion including a 6-histidine tag, expressed in E. coli
- Km [3]: 251 ± 26 µM
